Broadly, the IC50 is the point on the concentration scale where inhibition reaches its midpoint.

The source of these data is PMC10962542, “Inhibition of Aurora‐A/N‐Myc Protein–Protein Interaction Using Peptidomimetics: Understanding the Role of Peptide Cyclization” (Chembiochem, 2023).

The nature of one data set: circular dichroism. More on the design: unit not given here. The conditions noted are these: 25 mM Tris, 150 mM NaCl, 5 mM MgCl2; pH 7.5; 5 °C; 30-120 uM. For orientation: Circular dichroism is the unequal absorption of left and right circularly polarised light.
Data set [1] deals with T1, N‐Myc/Aurora‐A interaction (Aurora‐A122‐403‐C290A/C393A) (Homo sapiens, UniProt O14965, C290A/C393A).
T1 construct: Aurora‐A 122‐403‐C290A/C393A protein was produced as described previously; made in house
T1 sequence (O14965 122-403 C290A/C393A): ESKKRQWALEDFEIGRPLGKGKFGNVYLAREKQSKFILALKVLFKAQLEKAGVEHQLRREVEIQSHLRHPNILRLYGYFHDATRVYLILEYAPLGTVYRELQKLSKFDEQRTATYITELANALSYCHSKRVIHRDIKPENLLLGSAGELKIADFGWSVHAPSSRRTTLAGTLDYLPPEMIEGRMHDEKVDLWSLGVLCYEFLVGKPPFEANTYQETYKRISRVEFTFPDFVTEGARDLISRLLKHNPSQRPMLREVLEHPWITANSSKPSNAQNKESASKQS
Description: competition fluorescence anisotropy (FA) assay against fluorescein labelled N‐Myc61‐89. Also: equilibrated 2 h at room temperature. To be noted: SD. Format: binding. (Fluorescence polarisation rises when a labelled molecule tumbles more slowly, as on binding a larger partner.)

The nature of data set [2]: circular dichroism (CD) spectroscopy. To be noted: 150 mM NaCl, 5 mM MgCl2, pH 7.5, 5 °C, n=2, free‐thiol (red) samples with 5 mol equivalents TCEP; for MRE222 (mean residue ellipticity at 222 nm): 25 mM Tris, mean ± SD, SD; for % Helicity (estimated): from MRE222 by equation 7, 25 mM Tris. The format is physicochemical. In short, it runs like this:
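Peptides at 30–120 μM in 25 mM Tris, 150 mM NaCl, 5 mM MgCl2, pH 7.5 (plus 5 mol eq. TCEP for free sulfhydryl peptides) were scanned in duplicate at 5 °C from 290 to 180 nm, 1 mm pathlength. Buffer-subtracted ellipticity gave mean residue ellipticity, and % helicity was estimated from MRE at 222 nm.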

Each structure is given as a SMILES string. Marks after values point to notes of the source that are not given here. *1 amine or outer side, *2 acyl side, *3 side chain or, on linkers, in order; H or OH if unused. Where a SMILES comes first, the peptide text is derived from it. Bridges are numbered along the chain shown (N, C = ends). Maleimide(3,4-diyl) = O=C1NC(=O)C([*:2])=C1[*:1]

The compound `CSCC[C@H](NC(=O)[C@H](CCC(=O)O)NC(=O)[C@@H](NC(=O)[C@@H](NC(=O)[C@H](Cc1c[nH]c2ccccc12)NC(=O)[C@H](CO)NC(=O)[C@@H]1CCCN1C(=O)[C@@H]1CCCN1C(=O)[C@H](CCC(=O)O)NC(C)=O)C(C)C)[C@@H](C)O)C(=O)N[C@@H](CC(C)C)C(=O)N[C@@H](CC(C)C)C(=O)N[C@@H](CCC(=O)O)C(=O)N[C@H]1CSSC[C@@H](C(=O)N[C@@H](CO)C(=O)N2CCC[C@H]2C(=O)N[C@@H](C)C(=O)N[C@@H](CCC(=O)O)C(=O)N[C@@H](CCC(=O)O)C(N)=O)NC(=O)[C@H](Cc2c[nH]c3ccccc23)NC(=O)[C@H](CC(C)C)NC(=O)[C@H](CCC(=O)O)NC1=O` [N‐Myc73‐94‐N85C/G89C (ox)] (Ac-EPPSWVTEMLLECELWCSPAEE-NH2; disulfide 13-17) registered a helicity in “circular dichroism” of -5260. The IC50 in data set [1] was 130 ± 9 µM. Besides, in data set [2], the “MRE222 (mean residue ellipticity at 222 nm)” value (“MRE222” for short) is reported as −5255±217 deg cm^−1 dmol^−1 res^−1 and the “% Helicity (estimated)” value is on record as 15±1%.
For `CSCC[C@H](NC(=O)[C@H](CCC(=O)O)NC(=O)[C@@H](NC(=O)[C@@H](NC(=O)[C@H](Cc1c[nH]c2ccccc12)NC(=O)[C@H](CO)NC(=O)[C@@H]1CCCN1C(=O)[C@@H]1CCCN1C(=O)[C@H](CCC(=O)O)NC(C)=O)C(C)C)[C@@H](C)O)C(=O)N[C@@H](CC(C)C)C(=O)N[C@@H](CC(C)C)C(=O)N[C@@H](CCC(=O)O)C(=O)N[C@@H](CS)C(=O)N[C@@H](CCC(=O)O)C(=O)N[C@@H](CC(C)C)C(=O)N[C@@H](Cc1c[nH]c2ccccc12)C(=O)N[C@@H](CS)C(=O)N[C@@H](CO)C(=O)N1CCC[C@H]1C(=O)N[C@@H](C)C(=O)N[C@@H](CCC(=O)O)C(=O)N[C@@H](CCC(=O)O)C(N)=O` [N‐Myc73‐94‐N85C/G89C (red)] (Ac-EPPSWVTEMLLECELWCSPAEE-NH2) the same measures were -4380, 123 ± 10 µM, −4383±64^[e] deg cm^−1 dmol^−1 res^−1 and 13±1%.
In turn, `CSCC[C@H](NC(=O)[C@H](CCC(=O)O)NC(=O)[C@@H](NC(=O)[C@@H](NC(=O)[C@H](Cc1c[nH]c2ccccc12)NC(=O)[C@H](CO)NC(=O)[C@@H]1CCCN1C(=O)[C@@H]1CCCN1C(=O)[C@H](CCC(=O)O)NC(C)=O)C(C)C)[C@@H](C)O)C(=O)N[C@@H](CC(C)C)C(=O)N[C@@H](CC(C)C)C(=O)N[C@@H](CCC(=O)O)C(=O)N[C@@H](CC(N)=O)C(=O)N[C@H]1CSC2=C(SC[C@@H](C(=O)N3CCC[C@H]3C(=O)N[C@@H](C)C(=O)N[C@@H](CCC(=O)O)C(=O)N[C@@H](CCC(=O)O)C(N)=O)NC(=O)CNC(=O)[C@H](Cc3c[nH]c4ccccc34)NC(=O)[C@H](CC(C)C)NC1=O)C(=O)NC2=O` [N‐Myc73‐94‐E86C/S90C (mal)] (Ac-EPPSWVTEMLLENCLWGCPAEE-NH2; linker 14-18 via Maleimide(3,4-diyl)) returned a helicity in the data set “circular dichroism” of -5720. In data set [1], this compound yielded an IC50 of 111 ± 18 µM.
With `CSCC[C@H](NC(=O)[C@H](CCC(=O)O)NC(=O)[C@@H](NC(=O)[C@@H](NC(=O)[C@H](Cc1c[nH]c2ccccc12)NC(=O)[C@H](CO)NC(=O)[C@@H]1CCCN1C(=O)[C@@H]1CCCN1C(=O)[C@H](CCC(=O)O)NC(C)=O)C(C)C)[C@@H](C)O)C(=O)N[C@@H](CC(C)C)C(=O)N[C@@H](CC(C)C)C(=O)N[C@@H](CCC(=O)O)C(=O)N[C@@H](CC(N)=O)C(=O)N[C@@H](CCC(=O)O)C(=O)N[C@@H](CC(C)C)C(=O)N[C@@H](Cc1c[nH]c2ccccc12)C(=O)NCC(=O)N[C@@H](CO)C(=O)N1CCC[C@H]1C(=O)N[C@@H](C)C(=O)N[C@@H](CCC(=O)O)C(=O)N[C@@H](CCC(=O)O)C(N)=O` [N‐Myc73‐94], in “circular dichroism”, the helicity is -4240. The compound also registered an IC50 in data set [1] of 199 ± 13 µM. In data set [2], the “MRE222” value is −4235±181 deg cm^−1 dmol^−1 res^−1 and the “% Helicity (estimated)” value was 13±1%.
The compound `CSCC[C@H](NC(=O)[C@H](CCC(=O)O)NC(=O)[C@@H](NC(=O)[C@@H](NC(=O)[C@H](Cc1c[nH]c2ccccc12)NC(=O)[C@H](CO)NC(=O)[C@@H]1CCCN1C(=O)[C@@H]1CCCN1C(=O)[C@H](CCC(=O)O)NC(C)=O)C(C)C)[C@@H](C)O)C(=O)N[C@@H](CC(C)C)C(=O)N[C@@H](CC(C)C)C(=O)N[C@@H](CCC(=O)O)C(=O)N[C@H]1CSC2=C(SC[C@@H](C(=O)N[C@@H](CO)C(=O)N3CCC[C@H]3C(=O)N[C@@H](C)C(=O)N[C@@H](CCC(=O)O)C(=O)N[C@@H](CCC(=O)O)C(N)=O)NC(=O)[C@H](Cc3c[nH]c4ccccc34)NC(=O)[C@H](CC(C)C)NC(=O)[C@H](CCC(=O)O)NC1=O)C(=O)NC2=O` [N‐Myc73‐94‐N85C/G89C (mal)] (Ac-EPPSWVTEMLLECELWCSPAEE-NH2; linker 13-17 via Maleimide(3,4-diyl)) registered a helicity in “circular dichroism” of -7220. In addition, the IC50 in data set [1] turned out to be 49 ± 5 µM.
With `CSCC[C@H](NC(=O)[C@H](CCC(=O)O)NC(=O)[C@@H](NC(=O)[C@@H](NC(=O)[C@H](Cc1c[nH]c2ccccc12)NC(=O)[C@H](CO)NC(=O)[C@@H]1CCCN1C(=O)[C@@H]1CCCN1C(=O)[C@H](COP(=O)(O)O)NC(C)=O)C(C)C)[C@@H](C)O)C(=O)N[C@@H](CC(C)C)C(=O)N[C@@H](CC(C)C)C(=O)N[C@@H](CCC(=O)O)C(=O)N[C@@H](CC(N)=O)C(=O)N[C@@H](CCC(=O)O)C(=O)N[C@@H](CC(C)C)C(=O)N[C@@H](Cc1c[nH]c2ccccc12)C(=O)NCC(N)=O` [N‐Myc73‐89‐E73pS], the helicity in “circular dichroism” is -5390. Also, in data set [2], the “MRE222” value is listed as −5394±235 deg cm^−1 dmol^−1 res^−1 and the “% Helicity (estimated)” value is given as 16±1%.
`CSCC[C@H](NC(=O)[C@H](CCC(=O)O)NC(=O)[C@@H](NC(=O)[C@@H](NC(=O)[C@H](Cc1c[nH]c2ccccc12)NC(=O)[C@H](CO)NC(=O)[C@@H]1CCCN1C(=O)[C@@H]1CCCN1C(=O)[C@H](CCC(=O)O)NC(C)=O)C(C)C)[C@@H](C)O)C(=O)N[C@@H](CC(C)C)C(=O)N[C@@H](CC(C)C)C(=O)N[C@@H](CCC(=O)O)C(=O)N[C@@H](CC(N)=O)C(=O)N[C@@H](CCC(=O)O)C(=O)N[C@@H](CC(C)C)C(=O)N[C@@H](Cc1c[nH]c2ccccc12)C(=O)NCC(N)=O` [N‐Myc73‐89] returned a helicity in the data set “circular dichroism” of -4080. Further, in data set [2], the “MRE222” value was −4079±71 deg cm^−1 dmol^−1 res^−1 and the “% Helicity (estimated)” value is recorded as 13±1%.
In turn, `CSCC[C@H](NC(=O)[C@@H]1CSSC[C@H](NC(=O)[C@@H]2CCCN2C(=O)[C@@H]2CCCN2C(=O)[C@H](CCC(=O)O)NC(=O)[C@H](CO)NC(=O)[C@H](CO)NC(=O)[C@H](Cc2c[nH]cn2)NC(=O)[C@H](CCC(=O)O)NC(=O)[C@H](C)NC(=O)[C@H](Cc2ccccc2)NC(=O)CNC(=O)[C@H](CCCNC(=N)N)NC(=O)[C@H](CO)NC(=O)[C@@H]2CCCN2C(=O)[C@H](CO)NC(=O)[C@H](CC(C)C)NC(C)=O)C(=O)N[C@@H](Cc2c[nH]c3ccccc23)C(=O)N[C@@H](C(C)C)C(=O)N[C@@H]([C@@H](C)O)C(=O)N1)C(=O)N[C@@H](CC(C)C)C(=O)N[C@@H](CC(C)C)C(=O)N[C@@H](CCC(=O)O)C(=O)N[C@@H](CC(N)=O)C(=O)N[C@@H](CCC(=O)O)C(=O)N[C@@H](CC(C)C)C(=O)N[C@@H](Cc1c[nH]c2ccccc12)C(=O)NCC(N)=O` [N-Myc 61-89 S76C/E80 ox] (Ac-LSPSRGFAEHSSEPPCWVTCMLLENELWG-NH2; disulfide 16-20) returned an IC50 in data set [1] of 84 ± 9 µM. In data set [2], the “MRE222” value is recorded as -2141 ± 88 deg cm^−1 dmol^−1 res^−1 and the “% Helicity (estimated)” value is recorded as 7 ± 1%.
With `CC(=O)N[C@@H](CC(C)C)C(=O)N[C@@H](CO)C(=O)N1CCC[C@H]1C(=O)N[C@@H](CO)C(=O)N[C@@H](CCCNC(=N)N)C(=O)NCC(=O)N[C@@H](Cc1ccccc1)C(=O)N[C@@H](C)C(=O)N[C@@H](CCC(=O)O)C(=O)N[C@@H](Cc1c[nH]cn1)C(=O)N[C@@H](CO)C(=O)N[C@@H](CO)C(=O)N[C@@H](CCC(=O)O)C(=O)N1CCC[C@H]1C(=O)N1CCC[C@H]1C(=O)N[C@@H](CO)C(=O)N[C@@H](Cc1c[nH]c2ccccc12)C(=O)N[C@H](C(=O)N[C@H](C(=O)N[C@@H](CCC(=O)O)C(=O)N[C@H]1CSSC[C@@H](C(=O)N[C@@H](CCC(=O)O)C(=O)N[C@@H](CC(C)C)C(=O)N[C@@H](Cc2c[nH]c3ccccc23)C(=O)NCC(N)=O)NC(=O)[C@H](CCC(=O)O)NC(=O)[C@H](CC(C)C)NC(=O)[C@H](CC(C)C)NC1=O)[C@@H](C)O)C(C)C` [N-Myc 61-89 M81C/N85C ox] (Ac-LSPSRGFAEHSSEPPSWVTECLLECELWG-NH2; disulfide 21-25), the IC50 in data set [1] turned out to be 92 ± 13 µM. Also, in data set [2], the “MRE222” value is listed as -2894 ± 119 deg cm^−1 dmol^−1 res^−1 and the “% Helicity (estimated)” value is recorded as 9 ± 1%.
